Data taken from ChEMBL document CHEMBL1201862, “PubChem BioAssay data set” (2004).
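Dose response: 5 concentrations. Exposure: 48 h. Format: 96-well plates. Endpoint: linear interpolation; highest concentration if not reached. GI50 is the concentration that inhibits growth by half.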 Calls of active or inactive are those of the source. Rule as the data show it: active = GI50 up to about 1.1 µM and inactive = higher.

What was measured:
Test in all cases: growth of human tumour cells (NCI), 48 h
A549 = test system: A549
ACHN = test system: ACHN
CAKI-1 = test system: CAKI-1
CCRF-CEM = test system: CCRF-CEM
COLO 205 = test system: COLO 205
HCT-116 = test system: HCT-116
KM12 = test system: KM12
MDA-MB-231 = test system: MDA-MB-231
Malme-3M = test system: Malme-3M
NCI-H226 = test system: NCI-H226
OVCAR-4 = test system: OVCAR-4
OVCAR-5 = test system: OVCAR-5
OVCAR-8 = test system: OVCAR-8
RPMI-8226 = test system: RPMI-8226
SF-268 = test system: SF-268
SF-539 = test system: SF-539
SK-MEL-2 = test system: SK-MEL-2
SN12C = test system: SN12C
SR = test system: SR
UO-31 = test system: UO-31

Structure (SMILES)	GI50 (A549)	GI50 (ACHN)	GI50 (CAKI-1)	GI50 (CCRF-CEM)	GI50 (COLO 205)	GI50 (HCT-116)	GI50 (KM12)	GI50 (MDA-MB-231)	GI50 (Malme-3M)	GI50 (NCI-H226)	GI50 (OVCAR-4)	GI50 (OVCAR-5)	GI50 (OVCAR-8)	GI50 (RPMI-8226)	GI50 (SF-268)	GI50 (SF-539)	GI50 (SK-MEL-2)	GI50 (SN12C)	GI50 (SR)	GI50 (UO-31)
CC(=O)NCC1(c2ccccc2)CCN(CC2COc3ccccc3O2)CC1 (stereo not given) [ACOXATRINE]	> 100 µM (inactive)	> 100 µM (inactive)	> 100 µM (inactive)	> 100 µM (inactive)	> 100 µM (inactive)	> 100 µM (inactive)	> 100 µM (inactive)	> 100 µM (inactive)	> 100 µM (inactive)	> 100 µM (inactive)	> 100 µM (inactive)	> 100 µM (inactive)	> 100 µM (inactive)	> 100 µM (inactive)	> 100 µM (inactive)	> 100 µM (inactive)	> 100 µM (inactive)	> 100 µM (inactive)	> 100 µM (inactive)	> 100 µM (inactive)
OC12CC3c4ccccc4NC3C3Oc4cccc5c4C31CCN(CC1CC1)C2C5 (stereo not given)	18.4 µM (inactive)	18.9 µM (inactive)	17.6 µM (inactive)	23.4 µM (inactive)	20.9 µM (inactive)	16.8 µM (inactive)	18.8 µM (inactive)	17.9 µM (inactive)	19.7 µM (inactive)	26.1 µM (inactive)	20.7 µM (inactive)	21.1 µM (inactive)	16.4 µM (inactive)	18.4 µM (inactive)	18.2 µM (inactive)	26.5 µM (inactive)	19.5 µM (inactive)	17.2 µM (inactive)	17.4 µM (inactive)	15.8 µM (inactive)
OC1c2ccccc2CC12Cc1ccccc1C2 (stereo not given)	99.5 µM (inactive)	> 100 µM (inactive)	> 100 µM (inactive)	> 100 µM (inactive)	31.2 µM (inactive)	79.4 µM (inactive)	> 100 µM (inactive)	> 100 µM (inactive)	92.9 µM (inactive)	0.35 µM (active)	> 100 µM (inactive)	> 100 µM (inactive)	> 100 µM (inactive)	48.2 µM (inactive)	> 100 µM (inactive)	> 100 µM (inactive)	> 100 µM (inactive)	78.9 µM (inactive)	38.5 µM (inactive)	94.2 µM (inactive)
O=C(NN=C1CCCCC1)Nc1ccccc1Cl	81.7 µM (inactive)	> 100 µM (inactive)	92.7 µM (inactive)	42 µM (inactive)	31.3 µM (inactive)	48.8 µM (inactive)	38.3 µM (inactive)	> 100 µM (inactive)	40.3 µM (inactive)	39.9 µM (inactive)	> 100 µM (inactive)	54.2 µM (inactive)	62.5 µM (inactive)	45.9 µM (inactive)	41.1 µM (inactive)	32.5 µM (inactive)	28.6 µM (inactive)	57.5 µM (inactive)	22.5 µM (inactive)	61.9 µM (inactive)
O=C1N(c2ccccc2)C2(c3ccccc3)CC3CCCC13S2 (stereo not given)	53 µM (inactive)	> 100 µM (inactive)	> 100 µM (inactive)	43.3 µM (inactive)	43 µM (inactive)	46.6 µM (inactive)	54.8 µM (inactive)	72.1 µM (inactive)	40.9 µM (inactive)	63.4 µM (inactive)	27.8 µM (inactive)	> 100 µM (inactive)	> 100 µM (inactive)	27.5 µM (inactive)	58.1 µM (inactive)	> 100 µM (inactive)	14.4 µM (inactive)	96.2 µM (inactive)	26.4 µM (inactive)	78.9 µM (inactive)
COc1ccc2nc(-c3cccc(N(C)C)c3)cc(O)c2c1	0.147 µM (active)	0.618 µM (active)	0.327 µM (active)	0.255 µM (active)	0.198 µM (active)	0.101 µM (active)	0.337 µM (active)	0.594 µM (active)	0.177 µM (active)	0.266 µM (active)	5.64 µM (inactive)	0.541 µM (active)	0.186 µM (active)	0.318 µM (active)	0.378 µM (active)	0.151 µM (active)	0.314 µM (active)	0.353 µM (active)	0.142 µM (active)	0.782 µM (active)
COc1ccc(/C=C2\CCC(C)C3=C2NC(=S)NC3c2ccc(OC)c(OC)c2)cc1OC (stereo not given)	16.9 µM (inactive)	24.3 µM (inactive)	15.6 µM (inactive)	8.95 µM (inactive)	8.59 µM (inactive)	15.3 µM (inactive)	12 µM (inactive)	18.2 µM (inactive)	> 10 µM (inactive)	> 78 µM (inactive)	35.4 µM (inactive)	> 31.6 µM (inactive)	26.1 µM (inactive)	5.16 µM (inactive)	25.5 µM (inactive)	27.2 µM (inactive)	26.5 µM (inactive)	24.9 µM (inactive)	2.65 µM (inactive)	12.6 µM (inactive)
